Results: ChEMBL document CHEMBL4673352, “Discovery of AZD4573, a Potent and Selective Inhibitor of CDK9 That Enables Short Duration of Target Engagement for the Treatment of Hematological Malignancies” (J Med Chem, 2020)
pEC50, pIC50, pKd: −log10 of the molar value. The source made the active and inactive calls. No cut-off for these calls is given here.

Tests used:
[1] = Drug metabolism in human hepatocytes assessed as 4-(4-(2-((1S,3R)-3-acetamidocyclohexanecarboxamido)-5-chloropyridin-4-yl)-1H-pyrazol-5-yl)butanoic acid metabolite formation; assay type: ADME, cell-based, Hepatocyte
[2] = Drug metabolism in human hepatocytes assessed as (1S,3R)-3-acetamido-N-(5-chloro-4-(7-hydroxy-4,5,6,7-tetrahydropyrazolo[1,5-a]pyridin-3-yl)pyridin2-yl)cyclohexanecarboxamide metabolite formation; assay type: ADME, cell-based, Hepatocyte
[3] = Drug metabolism in human liver microsome assessed as 4-(4-(2-((1S,3R)-3-acetamidocyclohexanecarboxamido)-5-chloropyridin-4-yl)-1H-pyrazol-5-yl)butanoic acid formation at 10 uM measured after 1 hr in presence of NADPH by LC-UV-MS analysis; assay type: ADME; settings: microsomes
[4] = Drug metabolism in human liver microsome assessed as (1S,3R)-3-acetamido-N-(5-chloro-4-(5-(4-hydroxybutyl)-1H-pyrazol-4-yl)pyridin-2-yl)cyclohexanecarboxamide formation at 10 uM measured after 1 hr in presence of NADPH by LC-UV-MS analysis; assay type: ADME; settings: microsomes
[5] = Half-life in Beagle dog at […], iv administered over 0.25 hrs formulated as solution in DMSO/Captisol; assay type: ADME, organism-based, Canis lupus familiaris; settings: in vivo, dose 0.24 µmol/kg
Homo sapiens [6] = species: Homo sapiens; experiment: Selectivity ratio of IC50 for CDK6 (unknown origin) in presence of 5 mM ATP to IC50 for Inhibition of recombinant full length human N-terminal GST-fused CDK9 (1 to 372 residues)/His-tagged CyclinT1 (1 to 726 residues) expressed in baculovirus infected insect cells
Homo sapiens [7] = species: Homo sapiens; experiment: Selectivity ratio of IC50 for human recombinant N-terminal GST-TEV tagged CDK12 (696 to 1082 residues)/full length human CyclinK expressed in baculovirus expression system to IC50 for Inhibition of recombinant full length human N-terminal GST-fused CDK9 (1 to 372 residues)/His-tagged CyclinT1 (1 to 726 residues) expressed in baculovirus infected insect cells
Homo sapiens [8] = species: Homo sapiens; experiment: Selectivity ratio of IC50 for CDK5 (unknown origin) in presence of 5 mM ATP to IC50 for Inhibition of recombinant full length human N-terminal GST-fused CDK9 (1 to 372 residues)/His-tagged CyclinT1 (1 to 726 residues) expressed in baculovirus infected insect cells
Homo sapiens [9] = species: Homo sapiens; experiment: Selectivity ratio of IC50 for recombinant full length human CDK7/cyclinH1/MAT1 expressed in insect cells to IC50 for Inhibition of recombinant full length human N-terminal GST-fused CDK9 (1 to 372 residues)/His-tagged CyclinT1 (1 to 726 residues) expressed in baculovirus infected insect cells
CDK9/cyclin T1 = CDK9/cyclin T1 (Homo sapiens, UniProt P50750); experiment: Binding affinity to human CDK9/CyclinT assessed as equilibrium dissociation constant by surface plasmon resonance analysis; assay type: protein-complex assay
Homo sapiens [10] = species: Homo sapiens; experiment: Selectivity ratio of IC50 for CDK4 (unknown origin) in presence of 5 mM ATP to IC50 for Inhibition of recombinant full length human N-terminal GST-fused CDK9 (1 to 372 residues)/His-tagged CyclinT1 (1 to 726 residues) expressed in baculovirus infected insect cells
[11] = Volume of distribution at steady state in Beagle dog at […], iv administered over 0.25 hrs formulated as solution in DMSO/Captisol; assay type: ADME, organism-based, Canis lupus familiaris; settings: in vivo, dose 0.24 µmol/kg, read-out: Vdss
[12] = Drug metabolism in human hepatocytes assessed as (1S,3R)-3-acetamido-N-(5-fluoro-4-(5-(3-hydroxy-2,2-dimethylpropyl)-1H-pyrazol-4-yl)pyridin-2-yl)cyclohexanecarboxamide metabolite formation; assay type: ADME, cell-based, Hepatocyte
[13] = molecular target: T1, Cyclin-dependent kinase 9 (Homo sapiens, UniProt P50750)
[14] = molecular target: T1, Cyclin-dependent kinase 9; experiment: Inhibition of CDK9 in human MV4-11 cells assessed as induction of caspase-3/7 activation measured after 6 hrs followed by Caspase-glo reagent based assay; assay type: cell-based
NOMO-1 = experiment: Antitumor activity against human NOMO1 cells xenografted in CB17 SCID mouse assessed as tumor growth inhibition at 5 mg/kg, ip BID administered at 2 hrs dosing interval with 2 days on and 5 days off dosing schedule measured 12 days post initial dose; assay type: functional; settings: NOMO-1, ip, 288 h, time 12 day, read-out: TGI
[15] = Clearance in Beagle dog plasma at 0.23 umol/kg, iv administered over 0.25 hrs formulated as solution in 10% DMSO/90% water; assay type: ADME, organism-based, Canis lupus familiaris; settings: dose 0.23 µmol/kg
[16] = Volume of distribution at steady state in Beagle dog at 0.23 umol/kg, iv administered over 0.25 hrs formulated as solution in 10% DMSO/90% water; assay type: ADME, organism-based, Canis lupus familiaris; settings: in vivo, dose 0.23 µmol/kg, read-out: Vdss
[17] = Half-life in mouse at 2.3 umol/kg, iv formulated as solution; assay type: ADME, organism-based; settings: in vivo, dose 2.3 µmol/kg
[18] = molecular target: Glycogen synthase kinase-3 alpha (Homo sapiens, UniProt P49840); experiment: Inhibition of kinase tracer 236 binding to N-terminal GST-tagged human full length GSK3alpha expressed in baculovirus expression system by Lanthascreen Eu kinase binding assay; settings: dose 0.1 µM, time 60.0 min
[19] = molecular target: Insulin receptor (Homo sapiens) (UniProt P06213); experiment: Inhibition of human recombinant INSR using KKKSPGEYVNIEF as substrate at 1 uM incubated for 40 mins in presence of [gamma32P]-ATP by scintillation counting method relative to control
[20] = molecular target: Casein kinase I isoform gamma-2 (Homo sapiens, UniProt P78368); experiment: Inhibition of CK1gamma2 (unknown origin) in presence of 5 mM ATP
MV4-11 = experiment: Antitumor activity against human MV4-11 cells xenografted in ip dosed CB17 SCID mouse assessed as cell death administered twice daily at 2 hrs dose interval with 2 days on and 5 days off dosing schedule; assay type: functional, organism-based
[21] = molecular target: Dual specificity mitogen-activated protein kinase kinase 7 (Homo sapiens) (UniProt O14733); experiment: Inhibition of human recombinant […] using NK1a1 as substrate at 1 uM incubated for 40 mins in presence of [gamma32P]-ATP by scintillation counting method relative to control
[22] = molecular target: Glycogen synthase kinase-3 beta (Homo sapiens, UniProt P49841); experiment: Inhibition of GSK3beta (unknown origin) in presence of 5 mM ATP
[23] = molecular target: Cyclin-dependent kinase 9 (Mus musculus) (UniProt Q99J95); experiment: In-vivo inhibition of CDK9 in mouse xenografted with human MV4-11 cells assessed as reduction in Mcl-1 at 5 to 15 mg/kg, ip BID administered at 2 hrs dose interval with 2 days on and 5 days off dosing schedule by Western blot analysis; assay type: functional, organism-based; settings: dose 5-15 mg/kg
[24] = Drug metabolism in human liver microsomes assessed as3-(4-(2-((1S,3R)-3-acetamidocyclohexanecarboxamido)-5-chloropyridin-4-yl)-1H-pyrazol-5-yl)-2,2-dimethylpropanoic acid formation at 10 uM measured after 1 hr in presence of NADPH by LC-UV-MS analysis; assay type: ADME, Microsome
[25] = molecular target: Cyclin-dependent kinase 9 (Mus musculus) (UniProt Q99J95); experiment: In-vivo inhibition of CDK9 in CB17 SCID mouse xenografted with human NOMO1 cells assessed as reduction in RNA Polymerase 2 CTD phosphorylation at Ser2 residues administered intraperitoneally twice at 2 hrs dosing interval with 2 days on and 5 days off dosing schedule by Western blot analysis; assay type: functional; settings: dose 5-15 mg/kg

Cyclin-dependent kinase 9 (Mus musculus), sequence (Q99J95 whole entry): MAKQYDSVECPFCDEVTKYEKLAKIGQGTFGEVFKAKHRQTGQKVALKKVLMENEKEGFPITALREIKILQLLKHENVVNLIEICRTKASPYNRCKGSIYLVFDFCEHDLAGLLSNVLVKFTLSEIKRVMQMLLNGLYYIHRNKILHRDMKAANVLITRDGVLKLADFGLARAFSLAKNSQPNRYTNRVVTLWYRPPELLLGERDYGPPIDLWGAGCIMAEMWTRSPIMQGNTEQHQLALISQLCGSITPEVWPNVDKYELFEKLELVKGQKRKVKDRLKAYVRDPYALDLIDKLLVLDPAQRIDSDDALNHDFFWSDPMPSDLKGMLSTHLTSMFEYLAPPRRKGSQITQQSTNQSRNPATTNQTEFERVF
T1 sequence (P50750 whole entry): as the sequence (Q99J95 whole entry) above, with T17S, K37R, Q40K, K258N, F262Y counted along it
Dual specificity mitogen-activated protein kinase kinase 7 (Homo sapiens), sequence (O14733 whole entry): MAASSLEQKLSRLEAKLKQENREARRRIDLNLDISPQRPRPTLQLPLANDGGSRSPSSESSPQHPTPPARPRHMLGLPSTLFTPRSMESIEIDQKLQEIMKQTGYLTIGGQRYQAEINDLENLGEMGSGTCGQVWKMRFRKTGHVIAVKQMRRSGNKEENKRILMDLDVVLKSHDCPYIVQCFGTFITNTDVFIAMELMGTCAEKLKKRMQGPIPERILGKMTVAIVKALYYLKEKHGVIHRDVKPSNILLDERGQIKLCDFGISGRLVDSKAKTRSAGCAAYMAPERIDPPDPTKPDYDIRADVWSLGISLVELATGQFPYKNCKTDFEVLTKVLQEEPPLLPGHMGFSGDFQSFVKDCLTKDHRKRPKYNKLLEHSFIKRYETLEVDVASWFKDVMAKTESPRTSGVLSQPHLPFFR
Glycogen synthase kinase-3 beta, sequence (P49841 whole entry): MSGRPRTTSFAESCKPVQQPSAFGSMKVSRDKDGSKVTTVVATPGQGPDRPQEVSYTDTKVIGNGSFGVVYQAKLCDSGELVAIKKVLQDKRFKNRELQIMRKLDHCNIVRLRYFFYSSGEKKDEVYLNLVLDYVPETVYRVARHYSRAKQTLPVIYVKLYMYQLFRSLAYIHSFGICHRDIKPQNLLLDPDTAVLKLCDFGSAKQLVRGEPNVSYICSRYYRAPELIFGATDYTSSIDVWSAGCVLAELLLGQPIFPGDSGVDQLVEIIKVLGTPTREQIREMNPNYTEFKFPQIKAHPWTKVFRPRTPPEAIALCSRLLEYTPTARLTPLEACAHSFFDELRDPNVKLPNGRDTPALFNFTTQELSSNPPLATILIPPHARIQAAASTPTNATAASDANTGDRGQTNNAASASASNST
Glycogen synthase kinase-3 alpha, sequence (P49840 2-483 limits assumed): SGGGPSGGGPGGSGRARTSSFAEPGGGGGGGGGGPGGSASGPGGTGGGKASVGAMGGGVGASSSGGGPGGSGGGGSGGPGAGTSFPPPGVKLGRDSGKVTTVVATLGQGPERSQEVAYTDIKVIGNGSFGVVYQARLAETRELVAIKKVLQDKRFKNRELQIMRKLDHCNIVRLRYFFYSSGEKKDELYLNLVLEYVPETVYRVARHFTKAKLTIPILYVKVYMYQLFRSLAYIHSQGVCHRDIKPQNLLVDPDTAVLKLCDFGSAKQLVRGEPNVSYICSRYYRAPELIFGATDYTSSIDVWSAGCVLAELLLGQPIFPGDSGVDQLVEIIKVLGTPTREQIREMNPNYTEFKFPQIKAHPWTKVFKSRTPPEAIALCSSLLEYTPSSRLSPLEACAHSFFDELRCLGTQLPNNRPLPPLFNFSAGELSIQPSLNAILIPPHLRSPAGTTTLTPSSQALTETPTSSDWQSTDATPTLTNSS
Insulin receptor (Homo sapiens), sequence (P06213 28-758 limits assumed): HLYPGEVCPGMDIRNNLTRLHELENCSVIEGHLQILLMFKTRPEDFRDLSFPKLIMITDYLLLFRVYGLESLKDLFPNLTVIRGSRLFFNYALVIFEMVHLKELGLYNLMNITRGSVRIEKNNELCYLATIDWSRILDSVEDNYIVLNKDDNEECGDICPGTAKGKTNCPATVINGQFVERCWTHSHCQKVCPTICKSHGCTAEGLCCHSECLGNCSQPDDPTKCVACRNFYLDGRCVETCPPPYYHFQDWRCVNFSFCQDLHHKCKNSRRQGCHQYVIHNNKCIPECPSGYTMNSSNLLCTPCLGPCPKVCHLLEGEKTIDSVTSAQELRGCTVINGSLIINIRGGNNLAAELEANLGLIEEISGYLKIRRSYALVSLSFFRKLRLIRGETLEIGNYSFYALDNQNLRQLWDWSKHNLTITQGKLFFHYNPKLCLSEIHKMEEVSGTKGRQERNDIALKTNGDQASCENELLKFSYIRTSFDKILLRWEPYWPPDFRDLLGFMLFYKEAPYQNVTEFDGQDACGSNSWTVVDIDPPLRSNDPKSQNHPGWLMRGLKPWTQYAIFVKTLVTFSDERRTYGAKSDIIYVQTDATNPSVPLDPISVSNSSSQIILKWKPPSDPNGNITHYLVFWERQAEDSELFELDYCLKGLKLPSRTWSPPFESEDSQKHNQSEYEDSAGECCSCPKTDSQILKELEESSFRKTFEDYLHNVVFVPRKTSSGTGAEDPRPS
Insulin receptor (Homo sapiens), sequence (P06213 763-1382 limits assumed): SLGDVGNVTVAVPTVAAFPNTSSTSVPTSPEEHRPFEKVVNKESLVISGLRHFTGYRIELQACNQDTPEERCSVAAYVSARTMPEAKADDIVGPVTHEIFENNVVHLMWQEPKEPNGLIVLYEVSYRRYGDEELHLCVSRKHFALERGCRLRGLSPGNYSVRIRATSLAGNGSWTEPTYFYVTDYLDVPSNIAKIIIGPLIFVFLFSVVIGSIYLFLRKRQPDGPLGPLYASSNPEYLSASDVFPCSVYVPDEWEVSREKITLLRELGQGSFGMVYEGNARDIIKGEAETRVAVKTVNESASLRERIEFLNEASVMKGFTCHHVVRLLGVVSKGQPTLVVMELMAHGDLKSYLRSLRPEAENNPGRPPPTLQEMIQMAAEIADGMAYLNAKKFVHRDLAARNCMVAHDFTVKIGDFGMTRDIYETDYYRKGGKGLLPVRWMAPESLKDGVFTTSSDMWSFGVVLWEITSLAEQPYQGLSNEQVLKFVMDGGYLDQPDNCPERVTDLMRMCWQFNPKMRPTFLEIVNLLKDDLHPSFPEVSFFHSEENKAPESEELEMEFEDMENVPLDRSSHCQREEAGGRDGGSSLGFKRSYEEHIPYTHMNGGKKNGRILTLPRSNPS
CDK9/cyclin T1, sequence (O60563 whole entry, the tested form may be a part): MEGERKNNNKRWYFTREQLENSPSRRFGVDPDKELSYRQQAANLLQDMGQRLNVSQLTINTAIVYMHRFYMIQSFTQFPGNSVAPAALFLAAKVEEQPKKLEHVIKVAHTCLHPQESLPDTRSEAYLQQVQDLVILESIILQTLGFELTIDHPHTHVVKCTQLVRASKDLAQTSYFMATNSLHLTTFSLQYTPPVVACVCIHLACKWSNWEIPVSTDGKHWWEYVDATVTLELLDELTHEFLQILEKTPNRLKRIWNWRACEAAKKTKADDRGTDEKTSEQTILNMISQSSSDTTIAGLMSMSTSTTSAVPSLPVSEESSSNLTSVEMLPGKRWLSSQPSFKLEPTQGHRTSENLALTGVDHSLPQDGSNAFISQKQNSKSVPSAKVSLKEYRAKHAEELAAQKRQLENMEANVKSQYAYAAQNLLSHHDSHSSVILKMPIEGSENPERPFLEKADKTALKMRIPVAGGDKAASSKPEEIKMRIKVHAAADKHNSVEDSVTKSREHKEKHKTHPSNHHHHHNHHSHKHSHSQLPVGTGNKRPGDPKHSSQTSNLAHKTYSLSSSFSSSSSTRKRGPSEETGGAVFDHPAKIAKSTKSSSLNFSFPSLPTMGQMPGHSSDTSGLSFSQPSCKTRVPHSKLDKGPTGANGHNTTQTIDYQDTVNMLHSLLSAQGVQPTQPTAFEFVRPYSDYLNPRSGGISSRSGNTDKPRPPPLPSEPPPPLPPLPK
CDK9/cyclin T1, sequence (P50750 whole entry, the tested form may be a part): as the sequence (Q99J95 whole entry) above, with T17S, K37R, Q40K, K258N, F262Y counted along it
Casein kinase I isoform gamma-2, sequence (P78368 whole entry, canonical isoform): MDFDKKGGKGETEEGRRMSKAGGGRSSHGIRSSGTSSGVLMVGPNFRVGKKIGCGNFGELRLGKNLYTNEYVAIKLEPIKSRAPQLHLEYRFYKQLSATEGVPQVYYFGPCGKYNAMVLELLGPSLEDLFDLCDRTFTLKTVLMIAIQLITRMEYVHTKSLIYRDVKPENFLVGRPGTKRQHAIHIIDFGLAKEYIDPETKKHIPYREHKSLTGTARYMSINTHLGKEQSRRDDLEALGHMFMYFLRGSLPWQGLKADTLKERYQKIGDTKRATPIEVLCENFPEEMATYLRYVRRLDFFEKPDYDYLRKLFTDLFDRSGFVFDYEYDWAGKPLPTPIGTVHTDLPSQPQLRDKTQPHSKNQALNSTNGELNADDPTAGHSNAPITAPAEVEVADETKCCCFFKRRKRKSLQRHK

Q: What does the source list for CC(=O)N[C@@H]1CCC[C@H](C(=O)Nc2cc(-c3cnn4c3CCCC4)c(Cl)cn2)C1?
A: Drug metabolism [1]: Metabolite_Detected; Drug metabolism [2]: Metabolite_Detected; Drug metabolism [3]: Metabolite_Detected; Drug metabolism [4]: Metabolite_Detected

Q: With CC(=O)N[C@@H]1CCC[C@H](C(=O)Nc2cc(-c3cnn4c3CC(C)(C)C4)c(F)cn2)C1 as the molecule, how does the half-life at 0.25 h [5] read?
A: 25.8 min

Q: What about the Ratio IC50 (Homo sapiens [6]) of the same molecule?
A: 16

Q: And the Ratio IC50 (Homo sapiens [7])?
A: 16

Q: And the Ratio IC50 (Homo sapiens [8])?
A: 16

Q: And the Ratio IC50 (Homo sapiens [9])?
A: 16

Q: What about the pKd (CDK9/cyclin T1) of the same molecule?
A: 9.91

Q: What about the Ratio IC50 (Homo sapiens [10]) of the same molecule?
A: 16

Q: What about the Vd at 0.25 h [11] of the same molecule?
A: 1.2 L/kg

Q: And the Drug metabolism [12]?
A: Metabolite_Detected

Q: What about the pIC50 [13] of the same molecule?
A: < 5.52

Q: And the pEC50 [14]?
A: 7.54

Q: Which results are given for CC(=O)N[C@@H]1CCC[C@H](C(=O)Nc2cc(-c3cnn4c3CC(C)(C)C4)c(Cl)cn2)C1 [ZEMIRCICLIB]?
A: inhibition in vivo at 5 mg/kg (NOMO-1): 65%; clearance [15]: 16 mL/min/kg; Vd [16]: 0.67 L/kg; half-life [17]: 10.8 min; inhibition [18]: 96%; inhibition [19]: 83%; pIC50 [20]: 5.18; Activity (MV4-11): Dose-dependent effect; inhibition [21]: 85%; pIC50 [22]: 6.61; inhibition [23]: Active; Drug metabolism [24]: Metabolite_Detected; inhibition [25]: Dose-dependent effect
